Experimental data reported in PubChem BioAssay AID2060882 (Molecular Pharmacology Branch, DTP, NCI, 2025).
One block for each molecule: values may come before it.

Test system: 898857-211-R-J1-PDC complex spheroids, growth % test/control
Experiment: Anticancer human tumor 898857-211-R-J1-PDC patient-derived melanoma cell line growth inhibition [RAS]
Details: for IC50: curve of first compound; for viability, T/C: stronger effect = lower value
Text: RAS pathway inhibitors in Combinations in Complex Spheroids
A high-throughput screen of multi-cell type tumor spheroids was designed to identify active combinations of RAS pathway inhibitors and targeted small molecules. Complex spheroids include a stromal component modeled by human endothelial cells (HUVEC) and fibroblasts modeled by human mesenchymal stem cells (MSCs). The concentration ranges selected for each drug and investigational agent were based upon clinically achievable concentrations if the clinical Cmax of the agent was known.
Compounds. The drugs and investigational agents: abemaciclib (NSC768073), cobimetinib (NSC768068), divarasib (GDC6063, NSC841802), docetaxel (NSC628503), GDC-1971 (RLY-1971, NSC841576), gemcitabine (NSC613327), inavolisib (NSC800729), ipatasertib (NSC767898), KB-0742 (NSC834161), MRTX-1133 (NSC836407), osimertinib (NSC779217), RMC-4630 (NSC839698), RMC-6236 (NSC851965), RMC-6291 (NSC852671), Ro-3306 (NSC812927), sapanisertib (NSC764658), SN-38 (NSC673596), staurosporine (NSC755774), SY5609 (NSC837396), and tovorafenib (DAY101, NSC766906), were obtained from the National Cancer Institute (NCI) Developmental Therapeutics Program Chemical Repository. The FDA-approved anticancer drug set is available from the NCI Developmental Therapeutics Program. […] The stock solutions were prepared in dimethyl sulfoxide (DMSO, Sigma-Aldrich, St. Louis, MO, cat. D2650) at 800-fold the tested concentration and stored at -70 degrees C prior to their use. All drugs and investigational agents were tested over a range starting from a high concentration at or near the clinical Cmax and decreasing in half-log increments. If the clinical Cmax for an agent had not been determined, the highest concentration tested was 10 microM.
Cell Culture. All cells were maintained in an incubator at 37 degrees C and 5% CO2 with 95% humidity. The PDC lines were cultured according to standard operating procedures established by the NCI PDMR. All PDCs were thawed and cultured in Matrigel-coated flasks prepared with a working solution of 1X Ham's F-12 nutrient mix, without supplementation (Invitrogen, Waltham, MA, cat. 11765054), 100 U/mL penicillin-streptomycin (Invitrogen, cat. 15140122), and 2.5% Matrigel (Corning Inc., Corning, NY, cat. 354248) for the first three passages. The 362531-283-R-J2-PDC and 782815-120-R-J1-PDC lines were cultured in 6C/Colon 1B media, which includes advanced DMEM/F-12 (Thermo Fisher Scientific, cat. 12634028), 10 mM HEPES (Thermo Fisher Scientific, cat. 15630080), 1X GlutaMAX supplement (Thermo Fisher Scientific, cat. 35050061), 0.1 mg/mL primocin (InvivoGen, San Diego, CA, cat. ant-pm-2), 10% defined fetal bovine serum, heat inactivated (HyClone Laboratories Inc., Logan, UT, cat. SH30070.03HI), 50% L-WRN conditioned media (ATCC, cat. CRL-3276), 1.25 mM N-Acetyl-L-cysteine (Sigma-Aldrich, cat. A9165), 10 mM nicotinamide (Sigma-Aldrich, cat. N0636), 1X B-27 supplement (Thermo Fisher Scientific, cat. 17504044), 1X N-2 supplement (Thermo Fisher Scientific, cat. 17502048), 50 ng/mL human EGF (Thermo Fisher Scientific, cat. PHG0311), and 10 microM Y-27632 dihydrochloride (Tocris Bioscience, cat. 1254). The K12877-001-R-J1-PDC line was cultured in 6I media, which includes all 6C/Colon 1B media plus 10 ng/mL human FGF-10 (PeproTech, cat. 100-26), 1 ng/mL human FGF-2 (PeproTech, cat. 100-18B), 1 µM prostaglandin E2 (Tocris Bioscience, cat. 2296), […] hydrocortisone (Sigma-Aldrich, cat. H4001), and […] bovine insulin (Sigma-Aldrich, cat. I6634). The K86415-001-R-J1-PDC line was cultured in 6D media, which includes all 6C/Colon 1B media components minus the L-WRN conditioned media. The 485176-168-R4-J1-PDC was cultured in PANC media, which includes all 6C/Colon 1B media plus 100 ng/mL human FGF-10 (PeproTech, cat. 100-26), 500 nM SB-431542 (Selleckchem, cat. S1067), and 10 nM gastrin (Tocris Bioscience, cat. 3006). […]

[1] = second compound 0.0316 µM, first compound 0.0316 µM
[2] = second compound 0.0316 µM, first compound 0.1 µM
[3] = second compound 0.0316 µM, first compound 0.316 µM
[4] = second compound 0.0316 µM, first compound 1 µM
[5] = second compound 0.0316 µM, first compound 3.16 µM
[6] = second compound 0.0316 µM, first compound 10 µM
[7] = second compound 0.1 µM, first compound 0.0316 µM
[8] = second compound 0.1 µM, first compound 0.1 µM
[9] = second compound 0.1 µM, first compound 0.316 µM
[10] = second compound 0.1 µM, first compound 1 µM
[11] = second compound 0.1 µM, first compound 3.16 µM
[12] = second compound 0.1 µM, first compound 10 µM
[13] = second compound 0.316 µM, first compound 0.0316 µM
[14] = second compound 0.316 µM, first compound 0.1 µM
[15] = second compound 0.316 µM, first compound 0.316 µM
[16] = second compound 0.316 µM, first compound 1 µM
[17] = second compound 0.316 µM, first compound 3.16 µM
[18] = second compound 0.316 µM, first compound 10 µM
[19] = second compound 1 µM, first compound 0.0316 µM
[20] = second compound 1 µM, first compound 0.1 µM
[21] = second compound 1 µM, first compound 0.316 µM
[22] = second compound 1 µM, first compound 1 µM
[23] = second compound 1 µM, first compound 3.16 µM
[24] = second compound 1 µM, first compound 10 µM
[25] = second compound 3.16 µM, first compound 0.0316 µM
[26] = second compound 3.16 µM, first compound 0.1 µM
[27] = second compound 3.16 µM, first compound 0.316 µM
[28] = second compound 3.16 µM, first compound 1 µM
[29] = second compound 3.16 µM, first compound 3.16 µM
[30] = second compound 3.16 µM, first compound 10 µM
[31] = second compound 10 µM, first compound 0.0316 µM
[32] = second compound 10 µM, first compound 0.1 µM
[33] = second compound 10 µM, first compound 0.316 µM
[34] = second compound 10 µM, first compound 1 µM
[35] = second compound 10 µM, first compound 3.16 µM
[36] = second compound 10 µM, first compound 10 µM
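Note: spheroids exposed to compound for seven days before readout.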
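Throughout, for viability, T/C: 100% = DMSO vehicle control wells.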

IC50 (second compound 0.0316 µM): 1.07 µM
IC50 (second compound 0.1 µM): 1.21 µM
IC50 (second compound 0.316 µM): 1.24 µM
IC50 (second compound 1 µM): 1.26 µM
IC50 (second compound 3.16 µM): 1.09 µM
IC50 (second compound 10 µM): 0.032 µM
Compound: CCC(CC)c1cc(NC2CCC(N)C2)n2nccc2n1 (stereo unspecified) + C#Cc1c(F)ccc2cc(O)cc(-c3ncc4c(N5CC6CCC(C5)N6)nc(OCC56CCCN5CC(F)C6)nc4c3F)c12
viability, T/C [1]: 113%
viability, T/C [2]: 105%
viability, T/C [3]: 97.6%
viability, T/C [4]: 54.5%
viability, T/C [5]: 1.81%
viability, T/C [6]: 0.32%
viability, T/C [7]: 119%
viability, T/C [8]: 98.3%
viability, T/C [9]: 101%
viability, T/C [10]: 60%
viability, T/C [11]: 2.14%
viability, T/C [12]: 0.33%
viability, T/C [13]: 99.7%
viability, T/C [14]: 107%
viability, T/C [15]: 93.4%
viability, T/C [16]: 61.6%
viability, T/C [17]: 1.82%
viability, T/C [18]: 0.52%
viability, T/C [19]: 103%
viability, T/C [20]: 121%
viability, T/C [21]: 105%
viability, T/C [22]: 61.9%
viability, T/C [23]: 2.03%
viability, T/C [24]: 0.38%
viability, T/C [25]: 105%
viability, T/C [26]: 97.1%
viability, T/C [27]: 92.5%
viability, T/C [28]: 55%
viability, T/C [29]: 1.64%
viability, T/C [30]: 0.34%
viability, T/C [31]: 52.9%
viability, T/C [32]: 32.4%
viability, T/C [33]: 30%
viability, T/C [34]: 25.2%
viability, T/C [35]: 0.4%
viability, T/C [36]: 0.18%

IC50 (second compound 0.0316 µM): > 10 µM
IC50 (second compound 0.1 µM): > 10 µM
IC50 (second compound 0.316 µM): > 10 µM
IC50 (second compound 1 µM): > 10 µM
IC50 (second compound 3.16 µM): > 10 µM
IC50 (second compound 10 µM): < 0.0316 µM
Compound: Cc1nc(N2CCC3(CC2)COC(C)C3N)c(CO)nc1Sc1ccnc(N)c1Cl (stereo unspecified) + C#Cc1c(F)ccc2cc(O)cc(-c3ncc4c(N5CC6CCC(C5)N6)nc(OCC56CCCN5CC(F)C6)nc4c3F)c12
viability, T/C [1]: 117%
viability, T/C [2]: 91.8%
viability, T/C [3]: 100%
viability, T/C [4]: 97.3%
viability, T/C [5]: 89.8%
viability, T/C [6]: 88.3%
viability, T/C [7]: 103%
viability, T/C [8]: 96.6%
viability, T/C [9]: 96.2%
viability, T/C [10]: 87.1%
viability, T/C [11]: 97.2%
viability, T/C [12]: 86.3%
viability, T/C [13]: 101%
viability, T/C [14]: 102%
viability, T/C [15]: 102%
viability, T/C [16]: 98.2%
viability, T/C [17]: 103%
viability, T/C [18]: 99%
viability, T/C [19]: 104%
viability, T/C [20]: 108%
viability, T/C [21]: 107%
viability, T/C [22]: 104%
viability, T/C [23]: 96.6%
viability, T/C [24]: 108%
viability, T/C [25]: 96.8%
viability, T/C [26]: 108%
viability, T/C [27]: 86.3%
viability, T/C [28]: 106%
viability, T/C [29]: 103%
viability, T/C [30]: 90.8%
viability, T/C [31]: 37.6%
viability, T/C [32]: 45.1%
viability, T/C [33]: 49%
viability, T/C [34]: 52.2%
viability, T/C [35]: 38.2%
viability, T/C [36]: 15.8%

IC50 (second compound 0.0316 µM): > 10 µM
IC50 (second compound 0.1 µM): > 10 µM
IC50 (second compound 0.316 µM): > 10 µM
IC50 (second compound 1 µM): > 10 µM
IC50 (second compound 3.16 µM): > 10 µM
IC50 (second compound 10 µM): 0.0357 µM
Compound: NC1c2ccccc2OC12CCN(c1cnc3c(N4CCCc5ncccc54)n[nH]c3n1)CC2 (stereo unspecified) + C#Cc1c(F)ccc2cc(O)cc(-c3ncc4c(N5CC6CCC(C5)N6)nc(OCC56CCCN5CC(F)C6)nc4c3F)c12
viability, T/C [1]: 95.6%
viability, T/C [2]: 90.5%
viability, T/C [3]: 90.5%
viability, T/C [4]: 88.5%
viability, T/C [5]: 91.5%
viability, T/C [6]: 74.9%
viability, T/C [7]: 91.8%
viability, T/C [8]: 89.3%
viability, T/C [9]: 103%
viability, T/C [10]: 91.7%
viability, T/C [11]: 87.3%
viability, T/C [12]: 74.4%
viability, T/C [13]: 99.5%
viability, T/C [14]: 98%
viability, T/C [15]: 94%
viability, T/C [16]: 88.1%
viability, T/C [17]: 88.7%
viability, T/C [18]: 77.1%
viability, T/C [19]: 109%
viability, T/C [20]: 105%
viability, T/C [21]: 100%
viability, T/C [22]: 91.5%
viability, T/C [23]: 103%
viability, T/C [24]: 76%
viability, T/C [25]: 102%
viability, T/C [26]: 93.7%
viability, T/C [27]: 109%
viability, T/C [28]: 99.5%
viability, T/C [29]: 95.9%
viability, T/C [30]: 50.4%
viability, T/C [31]: 49%
viability, T/C [32]: 48%
viability, T/C [33]: 25.5%
viability, T/C [34]: 22.5%
viability, T/C [35]: 9.18%
viability, T/C [36]: 2.12%
